Experimental data as given in patent publication US4740601A, “Imidazole derivatives having antimicrobial activities” (SS Pharmaceutical Co., Ltd., priority 1985, dated 1988).
≈ marks a conversion by molar mass, not a printed value.

Tests used:
Format in all cases: cell-based
[1] = test system: Gibberella fujikuroi IAM 8046; assay: antimicrobial activity, MIC; conditions: Fusarium fujikuroi, IAM8046, Gibberella fujikuroi IAM 8046; read-out: MIC
[2] = test system: Pyricularia oryzae IAM 5016; assay: microbe, parasite or virus in culture; conditions: Pyricularia oryzae, IAM5016, Pyricularia oryzae IAM 5016
[3] = test system: Streptococcus faecalis IFO 12964; assay: antimicrobial activity, MIC; conditions: Enterococcus faecalis, IFO12964, Streptococcus faecalis IFO 12964; read-out: MIC
Candida albicans Yu-1200 = assay: antimicrobial activity, MIC; conditions: YU1200, read-out: MIC
[4] = test system: Micrococcus lysodeixticus IFO 3333; assay: antimicrobial activity, MIC; conditions: Micrococcus, IFO3333, Micrococcus lysodeixticus IFO 3333; read-out: MIC
[5] = test system: Debaryomyces kloeckeri IFO 0015; assay: antimicrobial activity, MIC; conditions: IFO0015, read-out: MIC
[6] = test system: Trichophyton mentagrophytes IFO 5812; assay: antimicrobial activity, MIC; conditions: Trichophyton mentagrophytes, IFO5812, Trichophyton mentagrophytes IFO 5812; read-out: MIC
[7] = test system: Fusarium moniliforme IAM 5062; assay: antimicrobial activity, MIC; conditions: Fusarium verticillioides, IAM5062, Fusarium moniliforme IAM 5062; read-out: MIC
[8] = test system: Trichophyton rubrum NHL J; assay: antimicrobial activity, MIC; conditions: Trichophyton rubrum, Trichophyton rubrum NHL J; read-out: MIC
[9] = test system: Staphylococcus aureus Smith; assay: antimicrobial activity, MIC; conditions: Staphylococcus aureus, read-out: MIC
[10] = test system: Cladosporium fulvum IAM 5006; assay: antimicrobial activity, MIC; conditions: Fulvia fulva, IAM5006, Cladosporium fulvum IAM 5006; read-out: MIC
[11] = test system: Bacillus subtilis ATCC 6633; assay: antimicrobial activity, MIC; conditions: Bacillus subtilis, ATCC6633, Bacillus subtilis ATCC 6633; read-out: MIC
[12] = test system: Saccharomyces cerevisiae ATCC 9763; assay: antimicrobial activity, MIC; conditions: Saccharomyces cerevisiae, ATCC9763, Saccharomyces cerevisiae ATCC 9763; read-out: MIC
[13] = test system: Aspergillus oryzae IMF 4014; assay: antimicrobial activity, MIC; conditions: Aspergillus oryzae, IMF4014, Aspergillus oryzae IMF 4014; read-out: MIC
Saccharomyces ruxii 6507 = assay: antimicrobial activity, MIC; conditions: Saccharomyces ruxii 6507; read-out: MIC
[14] = test system: Staphylococcus aureus Terajima; assay: antimicrobial activity, MIC; conditions: Staphylococcus aureus, read-out: MIC
[15] = test system: Staphylococcus epidermidis ATCC 12228; assay: antimicrobial activity, MIC; conditions: Staphylococcus epidermidis, ATCC12228, Staphylococcus epidermidis ATCC 12228; read-out: MIC
Sarcina lutea ATCC 9341 = assay: antimicrobial activity, MIC; conditions: Micrococcus luteus, ATCC9341, Sarcina lutea ATCC 9341; read-out: MIC
[16] = test system: Staphylococcus aureus FDA 209P; assay: antimicrobial activity, MIC; conditions: Staphylococcus aureus, FDA209P, read-out: MIC
[17] = test system: Trichophyton tonsurans IFO 5928; assay: antimicrobial activity, MIC; conditions: Trichophyton tonsurans, IFO5928, Trichophyton tonsurans IFO 5928; read-out: MIC
[18] = test system: Penicillium chrysogenum ATCC 6010; assay: antimicrobial activity, MIC; conditions: Penicillium chrysogenum, ATCC6010, Penicillium chrysogenum ATCC 6010; read-out: MIC
[19] = test system: Epidermophyton floccosum IFO 9045; assay: antimicrobial activity, MIC; conditions: Epidermophyton floccosum, IFO9045, Epidermophyton floccosum IFO 9045; read-out: MIC
[20] = test system: Aspergillus niger ATCC 9642; assay: antimicrobial activity, MIC; conditions: Aspergillus niger, ATCC9642, Aspergillus niger ATCC 9642; read-out: MIC
[21] = test system: Microsporum cookei IFO 8303; assay: antimicrobial activity, MIC; conditions: Paraphyton cookei, IFO8303, Microsporum cookei IFO 8303; read-out: MIC
[22] = test system: Trichophyton mentagrophytes QM 248; assay: antimicrobial activity, MIC; conditions: Trichophyton mentagrophytes, QM248, Trichophyton mentagrophytes QM 248; read-out: MIC
[23] = test system: Candida albicans NHL 4019; assay: antimicrobial activity, MIC; conditions: Candida albicans, NHL4019, Candida albicans NHL 4019; read-out: MIC
[24] = test system: Helminthosporium sesamum IAM 5012; assay: antimicrobial activity, MIC; conditions: Helminthosporium, IAM5012, Helminthosporium sesamum IAM 5012; read-out: MIC
[25] = test system: Microsporum gypseum IFO 8231; assay: antimicrobial activity, MIC; conditions: Nannizzia gypsea, IFO8231, Microsporum gypseum IFO 8231; read-out: MIC
[26] = test system: Microsporum audounii IFO 6074; assay: antimicrobial activity, MIC; conditions: Microsporum, IFO6074, Microsporum audounii IFO 6074; read-out: MIC

SMILES | MIC [1] [µg/mL] | MIC [2] [µg/mL] | MIC [3] [µg/mL] | MIC (Candida albicans Yu-1200) [µg/mL] | MIC [4] [µg/mL] | MIC [5] [µg/mL] | MIC [6] [µg/mL] | MIC [7] [µg/mL] | MIC [8] [µg/mL] | MIC [9] [µg/mL] | MIC [10] [µg/mL] | MIC [11] [µg/mL] | MIC [12] [µg/mL] | MIC [13] [µg/mL] | MIC (Saccharomyces ruxii 6507) [µg/mL] | MIC [14] [µg/mL] | MIC [15] [µg/mL] | MIC (Sarcina lutea ATCC 9341) [µg/mL] | MIC [16] [µg/mL] | MIC [17] [µg/mL] | also measured
CCCCOc1ccccc1C(=CSCc1ccccc1)n1ccnc1 (single isomer, unassigned) [Compound 8] | 6.25 (≈ 17.1 µM) | < 0.2 | > 100 | > 100 | 1.56 (≈ 4.28 µM) | 6.25 (≈ 17.1 µM) | 0.39 (≈ 1.07 µM) | 12.5 (≈ 34.3 µM) | < 0.2 | 6.25 (≈ 17.1 µM) | > 100 | 3.12 (≈ 8.56 µM) | < 0.2 | 12.5 (≈ 34.3 µM) | < 0.2 | 6.25 (≈ 17.1 µM) | 6.25 (≈ 17.1 µM) | 3.12 (≈ 8.56 µM) | 25 (≈ 68.6 µM) | < 0.2 | MIC [18]: 12.5 µg/mL (≈ 34.3 µM); MIC [19]: 6.25 µg/mL (≈ 17.1 µM); MIC [20]: 12.5 µg/mL (≈ 34.3 µM); MIC [21]: 12.5 µg/mL (≈ 34.3 µM); MIC [22]: 0.39 µg/mL (≈ 1.07 µM); MIC [23]: > 100 µg/mL; MIC [24]: 0.78 µg/mL (≈ 2.14 µM); MIC [25]: 0.39 µg/mL (≈ 1.07 µM); MIC [26]: < 0.2 µg/mL
CCCCSC=C(c1ccccc1OCCC)n1ccnc1 (single isomer, unassigned) [Compound 46] | 0.39 (≈ 1.23 µM) | < 0.2 | 12.5 (≈ 39.5 µM) | 50 (≈ 158 µM) | 3.12 (≈ 9.86 µM) | 12.5 (≈ 39.5 µM) | < 0.2 | 1.56 (≈ 4.93 µM) | < 0.2 | 12.5 (≈ 39.5 µM) | 12.5 (≈ 39.5 µM) | 6.25 (≈ 19.7 µM) | < 0.2 | 0.78 (≈ 2.46 µM) | 0.78 (≈ 2.46 µM) | 12.5 (≈ 39.5 µM) | 6.25 (≈ 19.7 µM) | 6.25 (≈ 19.7 µM) | 12.5 (≈ 39.5 µM) | < 0.2 | MIC [18]: 1.56 µg/mL (≈ 4.93 µM); MIC [19]: 1.56 µg/mL (≈ 4.93 µM); MIC [20]: 1.56 µg/mL (≈ 4.93 µM); MIC [21]: 1.56 µg/mL (≈ 4.93 µM); MIC [22]: < 0.2 µg/mL; MIC [23]: 25 µg/mL (≈ 79 µM); MIC [24]: 1.56 µg/mL (≈ 4.93 µM); MIC [25]: < 0.2 µg/mL; MIC [26]: < 0.2 µg/mL
CCCCOc1ccccc1C(=C(Br)Br)n1ccnc1 [Compound 93] | > 100 | 0.39 (≈ 0.975 µM) | 50 (≈ 125 µM) | > 100 | 6.25 (≈ 15.6 µM) | 6.25 (≈ 15.6 µM) | < 0.2 | > 100 | 0.39 (≈ 0.975 µM) | 25 (≈ 62.5 µM) | > 100 | 12.5 (≈ 31.2 µM) | < 0.2 | > 100 | < 0.2 | 25 (≈ 62.5 µM) | 25 (≈ 62.5 µM) | 25 (≈ 62.5 µM) | 25 (≈ 62.5 µM) | 1.56 (≈ 3.9 µM) | MIC [18]: > 100 µg/mL; MIC [19]: 25 µg/mL (≈ 62.5 µM); MIC [20]: > 100 µg/mL; MIC [21]: 12.5 µg/mL (≈ 31.2 µM); MIC [22]: 1.56 µg/mL (≈ 3.9 µM); MIC [23]: 100 µg/mL (≈ 250 µM); MIC [24]: 50 µg/mL (≈ 125 µM); MIC [25]: 6.25 µg/mL (≈ 15.6 µM); MIC [26]: < 0.2 µg/mL
